Tests used:
[1] = tested on: MMP-9; assay: Substrate phage display with NGS: relative probability (RP) of P3-P1' tetramer clusters; type: biochemical, human; settings: for corresponding MMP9 relative probability (RP): MMP2 tetramers from unique substrates, RP of same tetramer for MMP9
[2] = tested on: MMP-2; assay: as above; type: biochemical, human; settings: for MMP2 relative probability (RP): MMP2 tetramers from unique substrates, unrounded values; for relative probability (RP) of matching tetramer: P3-P1' tetramer matching the MS detected MMP2 cleavage sequence, RP_above_4.5; for avg_RP: MMP2 - no binning
[3] = RP according to MMP9, P3-P1' tetramer of unique physiologic MMP9 substrates from MEROPS
[4] = RP of the P3-P1' tetramer, MMP9 substrate phage display/NGS, tetramers of physiologic MEROPS substrates common to MMP2 and MMP9
[5] = RP according to MMP2, P3-P1' tetramer of unique physiologic MMP2 substrates from MEROPS
[6] = RP of the P3-P1' tetramer, MMP2 substrate phage display/NGS, tetramers of physiologic MEROPS substrates common to MMP2 and MMP9
[7] = MMP9, RP of matching P3-P1' tetramer, common set of MMP2-9 selectome
[8] = MMP9, RP of the P3-P1' tetramer matching the MS detected cleavage, RP above 4.7, substrate phage display with NGS
[9] = RP of matching tetramer, common MMP2-9 selectome, RP above KL threshold
[10] = MMP2, RP of matching P3-P1' tetramer, common set of MMP2-9 selectome, RP above KL threshold
[11] = RP of matching tetramer, common MMP2-9 selectome
[12] = MMP9, RP of the P3-P1' tetramer contained in the hexamer substrate (substrate phage display, NGS)
[13] = RP of the P3-P1' tetramer cluster contained in the hexamer, 200 nM MMP-2, 2 h, 37°C, two rounds of selection

**Q.** Which results are given for APGL?
**A.** corresponding MMP9 relative probability (RP) [1]: 3.776; Relative probability (RP) rank [1, 3]: 6833; relative probability (RP) [1, 3]: 3.78; relative probability (RP) (acc.to MMP9) [1, 4]: 3.78; MMP2 relative probability (RP) [2]: 7.849; Relative probability (RP) rank [2, 5]: 5899; relative probability (RP) [2, 5]: 7.85; relative probability (RP) (acc.to MMP2) [2, 6]: 7.85

**Q.** Which “relative probability (RP) (acc.to MMP9)” value [1, 4] does the source give for APGN here?
**A.** 2.38

**Q.** And the “relative probability (RP) (acc.to MMP2)” value [2, 6]?
**A.** 3.62

**Q.** ARAY was tested. Which “relative probability (RP) (acc.to MMP9)” value [1, 7] did it give?
**A.** 36.14

**Q.** And the “relative probability (RP)” value [1, 8]?
**A.** 36.14

**Q.** And the “relative probability (RP) (acc.to MMP9)” value [1, 9]?
**A.** 36.14

**Q.** And the “relative probability (RP) (acc.to MMP2)” value [2, 10]?
**A.** 20.14

**Q.** What about the “relative probability (RP) of matching tetramer” value [2] of the same substance?
**A.** 20.14

**Q.** What about the “relative probability (RP) (acc.to MMP2)” value [2, 11] of the same substance?
**A.** 20.14

**Q.** Which results are given for ARGI?
**A.** relative probability (RP) [1, 8]: 31.4; relative probability (RP) (acc.to MMP9) [1, 9]: 31.4; avg_RP ([2]; average relative probability (RP) of the P3-P1' tetramer, redundant tetramers have been averaged out): 21.2616; relative probability (RP) (acc.to MMP2) [2, 11]: 21.26

**Q.** With ARHYKS as the substance, how does the “relative probability (RP)” value [1, 12] read?
**A.** 23.6532

**Q.** What about the “relative probability (RP)” value [2, 13] of the same substance?
**A.** 10.2998

**Q.** For ASDY, which “relative probability (RP) (acc.to MMP9)” value [1, 4] is on record?
**A.** 0.38

**Q.** What about the “relative probability (RP) (acc.to MMP2)” value [2, 6] of the same substance?
**A.** 0.78

**Q.** With ATPY as the substance, how does the “relative probability (RP) (acc.to MMP9)” value [1, 7] read?
**A.** 9.04

**Q.** And the “relative probability (RP)” value [1, 8]?
**A.** 9.04

**Q.** What about the “relative probability (RP) (acc.to MMP9)” value [1, 9] of the same substance?
**A.** 9.04

**Q.** And the “relative probability (RP) (acc.to MMP2)” value [2, 10]?
**A.** 12.49

**Q.** What about the “relative probability (RP) of matching tetramer” value [2] of the same substance?
**A.** 12.49

**Q.** And the “relative probability (RP) (acc.to MMP2)” value [2, 11]?
**A.** 12.49

**Q.** With DGPVSF as the substance, how does the “relative probability (RP)” value [1, 12] read?
**A.** 25.1636

**Q.** What about the “relative probability (RP)” value [2, 13] of the same substance?
**A.** 24.4524

**Q.** For DSPQNL, which “relative probability (RP)” value [1, 12] is on record?
**A.** 46.8593

**Q.** What about the “relative probability (RP)” value [2, 13] of the same substance?
**A.** 32.7851

**Q.** Which “relative probability (RP)” value [1, 12] does the source give for EGPAGL here?
**A.** 47.2274

**Q.** What about the “relative probability (RP)” value [2, 13] of the same substance?
**A.** 36.0156

**Q.** EMRL was tested. Which “MMP9 relative probability (RP)” value ([1]; MMP9 tetramers from unique substrates, unrounded values) did it give?
**A.** 0.2922

**Q.** And the “corresponding MMP2 relative probability (RP)” value ([2]; MMP9 tetramers from unique substrates, RP of same tetramer for MMP2)?
**A.** 11.559

**Q.** How did the “relative probability (RP)” value [1, 12] turn out when EPKPLL was run?
**A.** 48.2599

**Q.** And the “relative probability (RP)” value [2, 13]?
**A.** 33.5622

**Q.** How did the “relative probability (RP)” value [1, 12] turn out when EPVSLA was run?
**A.** 42.3557

**Q.** And the “relative probability (RP)” value [2, 13]?
**A.** 32.502

**Q.** What does the source list for ETPRPW?
**A.** relative probability (RP) [1, 12]: 41.1124; relative probability (RP) [2, 13]: 32.1109

**Q.** Which results are given for EVPQAL?
**A.** relative probability (RP) [1, 12]: 48.457; relative probability (RP) [2, 13]: 34.4508

**Q.** Which “relative probability (RP) (acc.to MMP9)” value [1, 4] does the source give for FKNI here?
**A.** 0.09

**Q.** What about the “relative probability (RP) (acc.to MMP2)” value [2, 6] of the same substance?
**A.** 0.14

**Q.** Which results are given for FSPL?
**A.** corresponding MMP9 relative probability (RP) [1]: 1.083; MMP2 relative probability (RP) [2]: 14.7799; Relative probability (RP) rank [2, 5]: 3161; relative probability (RP) [2, 5]: 14.78

**Q.** How did the “relative probability (RP)” value [1, 12] turn out when GEPFEL was run?
**A.** 44.9497

**Q.** What about the “relative probability (RP)” value [2, 13] of the same substance?
**A.** 15.9169

**Q.** Which results are given for GEPRGQ?
**A.** relative probability (RP) [1, 12]: 42.1179; relative probability (RP) [2, 13]: 29.4864

**Q.** Which “relative probability (RP)” value [1, 12] does the source give for GKPVSM here?
**A.** 41.2029

**Q.** What about the “relative probability (RP)” value [2, 13] of the same substance?
**A.** 30.0644

**Q.** With GLSL as the substance, how does the “relative probability (RP) (acc.to MMP9)” value [1, 4] read?
**A.** 4.42

**Q.** What about the “relative probability (RP) (acc.to MMP2)” value [2, 6] of the same substance?
**A.** 0.18

**Q.** GPAGIR was tested. Which “relative probability (RP)” value [1, 12] did it give?
**A.** 45.1083

**Q.** And the “relative probability (RP)” value [2, 13]?
**A.** 33.3207

**Q.** With GPALSY as the substance, how does the “relative probability (RP)” value [1, 12] read?
**A.** 25.6531

**Q.** And the “relative probability (RP)” value [2, 13]?
**A.** 14.6475

**Q.** For GPARPY, which “relative probability (RP)” value [1, 12] is on record?
**A.** 36.8874

**Q.** And the “relative probability (RP)” value [2, 13]?
**A.** 20.5004

**Q.** With GPEGMK as the substance, how does the “relative probability (RP)” value [1, 12] read?
**A.** 31.8598

**Q.** What about the “relative probability (RP)” value [2, 13] of the same substance?
**A.** 19.9209

**Q.** What does the source list for GPHGYK?
**A.** relative probability (RP) [1, 12]: 44.1642; relative probability (RP) [2, 13]: 24.9359

**Q.** How did the “relative probability (RP) (acc.to MMP9)” value [1, 4] turn out when GPKG was run?
**A.** 2.81

**Q.** And the “relative probability (RP) (acc.to MMP2)” value [2, 6]?
**A.** 1.49

**Q.** What does the source list for GPKGFR?
**A.** relative probability (RP) [1, 12]: 42.0715; relative probability (RP) [2, 13]: 30.2308

**Q.** With GPRGLK as the substance, how does the “relative probability (RP)” value [1, 12] read?
**A.** 47.3825

**Q.** And the “relative probability (RP)” value [2, 13]?
**A.** 35.2511

**Q.** With GPRYLM as the substance, how does the “relative probability (RP)” value [1, 12] read?
**A.** 44.5304

**Q.** What about the “relative probability (RP)” value [2, 13] of the same substance?
**A.** 30.5447

**Q.** For GQPMNL, which “relative probability (RP)” value [1, 12] is on record?
**A.** 48.9575

**Q.** What about the “relative probability (RP)” value [2, 13] of the same substance?
**A.** 32.5586

**Q.** What does the source list for GRGL?
**A.** relative probability (RP) (acc.to MMP9) [1, 7]: 11.45; relative probability (RP) [1, 8]: 11.45; relative probability (RP) (acc.to MMP9) [1, 9]: 11.45; avg_RP ([2]; average relative probability of the tetramer, redundant tetramers averaged out): 4.9808; relative probability (RP) (acc.to MMP2) [2, 10]: 4.98; relative probability (RP) of matching tetramer [2]: 4.98; relative probability (RP) (acc.to MMP2) [2, 11]: 4.98

Source: publication PMC7932537, “Quantitative profiling of protease specificity” (PLoS Computational Biology, 2021)
